Like-named read-outs stand apart in the source and are kept apart here.
How the values were obtained:
[1] = system: IRAK1 phosphorylation in MDS/AML cells; assay: Immunoblotting for phospho-IRAK1; assay type: cell-based, human; settings: MDSL cells and patient-derived AML(1714), 10 μM, 24 hours
[2] = early phase trials, cited from earlier work
[3] = system: NF-kB activity upon IL-1β stimulation (IL-1R) in THP1 NF-kB reporter cells; assay: THP1 NF-kB reporter assay, IL-1β stimulation; assay type: cell-based, human; settings: for IC50: Homo sapiens
[4] = system: THP1 and MDSL cells; assay: Growth curves with IRAK4 inhibitors; assay type: cell-based, human; settings: IRAK1KO versus WT MDSL (10 μM) and THP1 (20 μM)

IC50 ([3]; THP-1, THP1 NF-kB reporter cells, read-out: IC50 vs. IL-1β (NF-kB activation)) [nM] | IC50 ([3]; THP-1, Table 1, unit nM, read-out: THP-1 NFkB IL1B IC50) [nM] | Compound | IRAK1 phosphorylation [1] | Complete or partial response rates ([2]; HR-MDS and AML patients) [%] | AML patients with spliceosome mutations reaching CR or CRh [2] [%] | HR-MDS patients achieving a CR [2] [%] | Span (extent of suppression of signaling through the IL-1R) ([3]; THP1 NF-kB reporter cells, IL-1β) [%] | Suppression of NF-kB signaling through the IL-1 receptor ([3]; THP1 NF-kB reporter cells, result in words) | LOG (IL1B) ([3]; Table 1, log of IL1B IC50) | Sensitivity of IRAK1KO MDS/AML cells (growth curves) [4]
 |  | Cc1cc(-c2nc(C(=O)Nc3cc4oc(N5CCOCC5)nc4nc3N3CC[C@@H](O)C3)co2)ccn1 [CA-4948, emavusertib] | increased IRAK1 phosphorylation | ~40 | 40 | 57 |  |  |  | 
5.7 | 678 | CC[C@@H]1[C@H](F)C(=O)N[C@@H]1COc1nccc2cc(C(N)=O)c(OC)cc12 [PF-06650833, Zimlovisertib] |  |  |  |  | 75 | do not fully suppress | 2.83 | A similar effect was also observed
